Experimental data as given in patent US6479531B1, “Gastrin and cholecystokinin receptor ligands” (James Black Foundation Limited, priority 1998, dated 2002).

Target: T1, CCKB receptor (Mus musculus, UniProt P56481)
T1 construct: The whole brains from male mice (CD1 22-25 g; Charles River) were removed; from tissue; host or cells: cerebral cortex membranes of male CD1 mice
T1 sequence (P56481 1-453): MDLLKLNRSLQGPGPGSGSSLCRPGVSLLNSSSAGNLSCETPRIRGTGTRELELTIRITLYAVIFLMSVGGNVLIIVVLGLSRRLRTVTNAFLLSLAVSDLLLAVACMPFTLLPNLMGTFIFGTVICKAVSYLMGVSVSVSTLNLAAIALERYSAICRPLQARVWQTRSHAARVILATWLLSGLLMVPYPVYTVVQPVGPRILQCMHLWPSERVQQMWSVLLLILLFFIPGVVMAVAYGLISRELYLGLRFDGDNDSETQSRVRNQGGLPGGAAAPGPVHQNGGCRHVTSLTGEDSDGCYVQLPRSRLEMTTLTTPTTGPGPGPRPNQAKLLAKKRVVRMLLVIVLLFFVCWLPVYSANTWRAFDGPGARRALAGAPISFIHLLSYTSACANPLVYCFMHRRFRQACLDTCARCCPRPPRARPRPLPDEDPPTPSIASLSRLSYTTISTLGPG
Assay: CCKB receptor radioligand binding assay in mouse cortical membranes
Settings: [125I]-CCK8(S) 200 pM, 150 min at 21±3°
Experimental: The compounds of the examples were tested for binding at the CCKB receptor in mouse cortical membranes by means of a radioligand binding assay. The procedure was as follows:
The whole brains from male mice (CD1 22-25 g; Charles River) were removed and placed in ice-cold buffer (pH 7.2 @ 21±3°) of the following composition (mM); 10 HEPES, 130 NaCl, 4.7 KCl, 5 MgCl2, 1 EDTA and containing 0.25 gl^−1 bacitracin. The cortex was dissected, weighed and homogenised in 40 ml ice-cold buffer using a Teflon-in-glass homogeniser. The homogenate was centrifuged at 39800 g for 20 min […], the supernatant discarded and the pellet resuspended by homogenisation in fresh buffer. The homogenate was recentrifuged (39800 g, 20 min @ 4°) and the final pellet was resuspended in HEPES buffer to give a tissue concentration of 20 mg ml^−1 (original wet weight).
The assay was terminated by rapid filtration through pre-soaked Whatman GF/B filters using a Brandell Cell Harvester. The filters were washed (3×3 ml) with ice-cold 50 mM Tris-HCl (pH 7.4 @ 4° C.) and bound radioactivity determined by counting (1 min) in a gamma-counter.

Compound | CCKB pKi
5-[(2-Adamantan-1-ylmethyl-5-phenyl-1H-pyrrole-3-carbonyl)-amino-methyl]-isophthalic Acid [Example 9] | 5.88
3-{[5-(2-Methyl-butyl)-2-o-tolyl-1H-imidazole-4-carbonyl]-amino}-benzoic Acid [Example 90] | 5.16

Same assay, conditions: [125I]-CCK8(S) 200 pM, 150 min at 21±3°, read-out: CCKB pKi (converted)

Compound | Ki [nM]
Cc1ccccc1-c1nc(C(=O)Nc2cccc(C(=O)NS(=O)(=O)c3ccccc3)c2)c(CCC23CC4CC(CC(C4)C2)C3)[nH]1 [Example 101, 5-(2-Adamantan-1-yl-ethyl)-2-o-tolyl-1H-imidazole-4-carboxylic acid (3-benzenesulfonylaminocarbonyl-phenyl)-amide] | 372
Cc1ccccc1-c1nc(C(=O)NC(C(=O)O)c2ccccc2)c(CCC23CC4CC(CC(C4)C2)C3)[nH]1 (stereo not shown) [Example 102, {[5-(2-Adamantan-1-yl-ethyl)-2-o-tolyl-1H-imidazole-4-carbonyl]-amino}-phenyl-acetic Acid] | 776
Cc1ccccc1-c1nc(C(=O)Nc2cc(C(=O)O)ccc2Cl)c(CCC23CC4CC(CC(C4)C2)C3)[nH]1 [Example 237, 3-{[5-(2-Adamantan-1-yl-ethyl)-2-o-tolyl-1H-imidazole-4-carbonyl]-amino}-4-chloro-benzoic Acid] | 7590
Cc1ccccc1-c1nc(C(=O)Nc2cc(C(=O)O)cc(C(F)(F)F)c2)c(CCC23CC4CC(CC(C4)C2)C3)[nH]1 [Example 243, 3-{[5-(2-Adamantan-1-yl-ethyl)-2-o-tolyl-1H-imidazole-4-carbonyl]-amino}-5-trifluoromethyl-benzoic Acid] | 537
O=C(O)c1cccc(NC(=O)c2cc(-c3ccccc3)[nH]c2CC23CC4CC(CC(C4)C2)C3)c1 [Example 3, 3-[(2-Adamantan-1-ylmethyl-5-phenyl-1H-pyrrole-3-carbonyl)-amino]-benzoic Acid] | 1450
Cc1ccccc1-c1nc(C(=O)N2CCC[C@H]2C(=O)O)c(CCC23CC4CC(CC(C4)C2)C3)[nH]1 [Example 95, (2S)-1-[5-(2-Adamantan-1-yl-ethyl)-2-o-tolyl-1H-imidazole-4-carbonyl]-pyrrolidine-carboxylic Acid] | 2510
O=C(O)c1cccc(NC(=O)c2cc(-c3ccccc3)[nH]c2CCC23CC4CC(CC(C4)C2)C3)c1 [Example 19, 3-{[2-(2-Adamantan-1-yl-ethyl)-5-phenyl-1H-pyrrole-3-carbonyl]-amino}-benzoic Acid] | 447
O=C(O)c1ccc(NC(=O)c2cc(-c3ccccc3)[nH]c2CC23CC4CC(CC(C4)C2)C3)cc1 [Example 7, 4-[(2-Adamantan-1-ylmethyl-5-phenyl-1H-pyrrole-3-carbonyl)-amino]-benzoic Acid] | 646
CN(C)c1ccc(-c2nc(C(=O)Nc3cc(C(=O)O)cc(C(=O)O)c3)c(CC3CCCCCC3)[nH]2)cc1 [Example 31, 5-[(5-Cycloheptylmethyl-2-(4-dimethylamino-phenyl)-1H-imidazole-4-carbonyl)-amino]-isophthalic Acid] | 1660
O=C(O)Cc1cccc(NC(=O)c2nc(-c3ccccc3)[nH]c2CCC23CC4CC(CC(C4)C2)C3)c1 [Example 82, (3-{[5-(2-Adamantan-1-yl-ethyl)-2-phenyl-1H-imidazole-4-carbonyl]-amino}-phenyl)-acetic Acid] | 13.2
O=C(O)c1cc(NC(=O)c2[nH]c(-c3ccc4[nH]ccc4c3)nc2CC2CCCCCC2)cc(C(=O)O)c1 [Example 30, 5-[(5-Cycloheptylmethyl-2-(1H-indol-5-yl)-1H-imidazole-4-carbonyl)-amino]-isophthalic Acid] | 1070
Cc1ccccc1-c1nc(C(=O)Nc2cccc(CC(=O)O)c2)c(CCC23CC4CC(CC(C4)C2)C3)[nH]1 [Example 83, (3-{[5-(2-Adamantan-1-yl-ethyl)-2-o-tolyl-1H-imidazole-4-carbonyl]-amino}-phenyl)-acetic Acid] | 2.24
Cn1c(-c2ccccc2)cc(C(=O)Nc2cc(C(=O)O)cc(C(=O)O)c2)c1CC12CC3CC(CC(C3)C1)C2 [Example 8, 5-[(2-Adamantan-1-ylmethyl-1-methyl-5-phenyl-1H-pyrrole-3-carbonyl)-amino]-isophthalic Acid] | 1020
Cc1ccccc1-c1nc(CCc2cccc(C(=O)O)c2)c(C(=O)NCC23CC4CC(CC(C4)C2)C3)[nH]1 [Example 119, 3-{2-[5-(Adamantan-1-ylmethylcarbamoyl)-2-o-tolyl-1H-imidazol-4-yl]-ethyl}-benzoic Acid] | 282
Cc1ccccc1-c1nc(C(=O)Nc2cccc(S(=O)(=O)NC(=O)c3ccccc3)c2)c(CCC23CC4CC(CC(C4)C2)C3)[nH]1 [Example 100, 5-(2-Adamantan-1-yl-ethyl)-2-o-tolyl-1H-imidazole-4-carboxylic Acid (3-benzoylsulfamoyl-phenyl)-amide] | 117
O=C(Nc1cccc(-c2nnn[nH]2)c1)c1nc(C2CCCCC2)[nH]c1CCC12CC3CC(CC(C3)C1)C2 [Example 130] | 9.55
O=C(O)c1cccc(NC(=O)c2nc(-c3ccccc3O)[nH]c2CCC23CC4CC(CC(C4)C2)C3)c1 [Example 64, 3-{[5-(2-Adamantan-1-yl-ethyl)-2-(2-hydroxy-phenyl)-1H-imidazole-4-carbonyl]-amino}-benzoic Acid] | 1380
O=C(O)c1cc(NC(=O)c2nc(C3CCCCC3)[nH]c2CC2CCCCCC2)cc(C(=O)O)c1 [Example 34, 5-[(5-Cycloheptylmethyl-2-cyclohexyl-1H-imidazole-4-carbonyl)-amino]-isophthalic Acid] | 1580
O=C(O)c1cccc(NC(=O)c2nc(-c3cccc4ccccc34)[nH]c2CCC23CC4CC(CC(C4)C2)C3)c1 [Example 145, 3-{[5-(2-Adamantan-1-yl-ethyl)-2-naphthalen-1-yl-1H-imidazole-4-carbonyl]-amino}-benzoic Acid] | 263
O=C(O)c1ccc(NC(=O)c2nc(-c3ccccc3F)[nH]c2CCC23CC4CC(CC(C4)C2)C3)cc1 [Example 51, 4-{[5-(2-Adamantan-1-yl-ethyl)-2-(2-fluoro-phenyl)-1H-imidazole-4-carbonyl]-amino}-benzoic Acid] | 2630
Cc1ccccc1-c1nc(C(=O)Nc2cccc(C(=O)O)c2)c(CCC23CC4CC(CC(C4)C2)C3)s1 [Example 121, 3-{[5-(2-Adamanatan-1-yl-ethyl)-2-o-tolyl-thiazole-4-carbonyl]-amino}-benzoic Acid] | 2400
O=C(O)c1cccc(CNC(=O)c2nc(-c3ccccc3)[nH]c2CCC23CC4CC(CC(C4)C2)C3)c1 [Example 85, 3-({[5-(2-Adamantan-1-yl-ethyl)-2-phenyl-1H-imidazole-4-carbonyl]-amino}-methyl)-benzoic Acid] | 479
O=C(O)c1cccc(NC(=O)c2cc(-c3ccc4ccccc4c3)[nH]c2CC2CCCCCC2)c1 [Example 14, 3-[(2-Cycloheptylmethyl-5-naphthalen-2-yl-1H-pyrrole-3-carbonyl)-amino]-benzoic Acid] | 1320
O=C(Nc1cc(-c2nnn[nH]2)cc(-c2nnn[nH]2)c1)c1cc(-c2ccc3ccccc3c2)[nH]c1CC12CC3CC(CC(C3)C1)C2 [Example 5, 2-Adamantan-1-ylmethyl-5-naphthalen-2-yl-1H-pyrrole-3-carboxylic Acid [3,5-bis-(1H-tetrazol-5-yl)-phenyl]-amide] | 229
O=C(O)CCNC(=O)c1cc(-c2ccccc2)[nH]c1CC12CC3CC(CC(C3)C1)C2 [Example 10, 3-[(2-Adamantan-1-ylmethyl-5-phenyl-1H-pyrrole-3-carbonyl)-amino]-propionic Acid] | 3020
Cc1ccc(NC(=O)c2c(CCC34CC5CC(CC(C5)C3)C4)nc(-c3ccccc3C)n2C)cc1C(=O)O [Example 162, 5-{[5-(2-Adamantan-1-yl-ethyl)-3-methyl-2-o-tolyl-3H-imidazole-4-carbonyl]-amino}-2-methyl-benzoic Acid] | 1660
COc1ccc(NC(=O)c2nc(-c3ccccc3C)[nH]c2CCC23CC4CC(CC(C4)C2)C3)cc1C(=O)O [Example 244, 5-{[5-(2-Adamantan-1-yl-ethyl)-2-o-tolyl-1H-imidazole-4-carbonyl]-amino}-2-methoxy-benzoic Acid] | 182
O=C(Nc1cccc(CO)c1)c1nc(-c2ccccc2)[nH]c1CCC12CC3CC(CC(C3)C1)C2 [Example 48, 5-(2-Adamantan-1-yl-ethyl)-2-phenyl-1H-imidazole-4-carboxylic Acid (3-hydroxymethyl-phenyl)-amide] | 269
COc1cccc(-c2nc(C(=O)Nc3cc(C(=O)O)cc(C(=O)O)c3)c(CC3CCCCCC3)[nH]2)c1 [Example 28, 5-[(5-Cycloheptylmethyl-2-(3-methoxy-phenyl)-1H-imidazole-4-carbonyl)-amino]-isophthalic Acid] | 1230
